Reference: US20150051262A1, “NMDA RECEPTOR MODULATORS AND USES THEREOF” (Northwestern University, priority 2011, published 2015)
Residues, ends and D or L forms follow the SMILES beside them.

Tests used:
[1] = Metabolic stability in liver microsomes, rat; type: in vitro ADME; conditions: Rat (M) microsomes
Description: (§1) Metabolic stability was assessed in liver microsomes as well as in hepatocytes with few compounds.
(§2) Procedure for microsomal stability: • Species: Rat and human • Test concentration: 1 μM (n=2) • Protein concentration: 0.125 mg/mL • Time points: 0, 5, 15, 30 and 60 minutes • Controls: Minus NADPH and buffer • Analysis: Parent compound monitoring LC-MS/MS (Peak area ratios)

[2] = Metabolic stability in liver microsomes, human; type: in vitro ADME; conditions: Human (M) microsomes
Description: as §1, §2

in vitro = conditions: dog, MDCK; for Papp: concentration 5 μM
Description: (§3) Procedure. Permeability of test compounds was assessed using MDCK (Madin-Darby Canine Kidney Cells) using the below parameters. • Test concentration: 5 μM (n=3) • Buffer: HBSS pH 7.4 • Time points: 0, 15, 30, 60 and 90 min • Analysis: Parent compound monitoring using LC-MS/MS

[3] = Bioavailability of CM-4A (plasma concentration after IV/PO dosing); type: in vivo, Sprague Dawley rats; conditions: 0.1 to 10 mg/kg PO, rat plasma, FIG. 1
Description: Procedure. […] Data for male and female were combined for 1 mg/kg PO dosing given that no gender difference was seen. Plasma was separated by centrifugation (1,000×G for 10 min at 4° C.) and plasma samples stored at −80° C. until assay. […]. On the day of the assay, samples and spiked plasma standards were thawed at 4° C., extracted in 3 volumes of ice cold acetonitrile, centrifuged at 25,000×G for 10 min at 4° C., and the supernatant was loaded into autosampler vials (4° C.).

[4] = tested on: long-term depression (LTD); assay: Long-term depression (LTD) in hippocampal slices; type: cell-based; conditions: 1 μM, FIG. 7
Description: (Note 0.001 μM represents no drug addition; Each point is mean±SEM of 8-10 slices).

floating behavior [5] = assay: Porsolt test procedure 1; type: in vivo, Sprague-Dawley rats
Description: Animals were placed in a 46 cm tall×20 cm in diameter clear glass tube filled to 30 cm with tap water at room temperature (23° C.±0.5° C.) for 5 min on the test day. All animals were towel dried after each swimming session by the experimenter. Water was changed after every other animal. Animals were videotaped and total duration (sec) of floating behavior (as defined as the minimal movement required in order to maintain the animal's head above the water) was quantified by a blind experimenter.

latency to eat = assay: Rat novelty-induced hypophagia (NIH) test; type: in vivo, SD rats; conditions: 1 mg/kg PO, 1 hr before test, FIG. 13
Description: The rat NIH test was conducted as follows. Animals were food deprived overnight before testing, and lab chow was placed into the center chamber of the open field. After NIH testing, the latency to eat in the animals' home cage was determined as a control. […] N=12 per group. *P<0.05.

ultrasonic vocalizations = assay: Rat ultrasonic vocalizations (USVs) test; type: in vivo, SD rats; conditions: 1 mg/kg PO, 1 hr before testing
Description: FIGS. 14A and 14B show the results of the rat USVs test. Positive emotional learning was measured during the conditioned stimulus (CS) trials preceding the tickle unconditioned stimulus (UCS) trials (FIG. 14A). Animals received 15 second trials consisting of 6 CS and 6 UCS trials each (3 min total). Running speed for animals to self administer tickling at the end of the 3 min session was also measured. […] N=7-8. *P<0.05.

open field behavior = assay: Rat open field test; type: in vivo, SD rats; conditions: 1 mg/kg PO, 1 hr before test, FIG. 15
fall latencies = assay: Rat accelerating rota-rod test; type: in vivo, SD rats; conditions: 10-100 mg/kg PO, 30 and 60 min post-dosing, FIG. 16
Description: Animals were tested immediately before dosing (0 min), 30 min post-dosing, and 60 min post-dosing using a within subjects design.

floating behavior [6] = assay: Porsolt test procedure 2; type: in vivo, Sprague Dawley rats
[7] = Kinetic aqueous solubility (pION method); type: physicochemical; conditions: pH 7.4, conc. tested 200 μM with 1% DMSO, 16 h incubation
[8] = Metabolic stability in hepatocytes, rat; type: in vitro ADME; conditions: Rat (H) hepatocytes, 10 μM
Description: as §1
(§4) Procedure for hepatocyte stability: • Stock preparation: DMSO • Buffer: Krebs Henseleit Buffer • Total Incubation volume: […] • Cell density: 1 million cells/mL • Test concentration: 10 μM with 0.5% DMSO (n=2) • Time points: 0 and 60 min • Analysis: LC-MS/MS

[9] = Metabolic stability in hepatocytes, human; type: in vitro ADME; conditions: Human (H) hepatocytes, 10 μM
Description: as §1, §4

[10] = tested on: MDCK (Madin-Darby Canine Kidney Cells); assay: in vitro; conditions: concentration 5 μM
Description: as §3

[11] = tested on: Schaffer collateral-evoked NMDA EPSCs in CA1 pyramidal neurons; assay: Long-term potentiation (LTP) assay procedure 2; type: cell-based, Sprague-Dawley rats; conditions: 1 μM, FIG. 8, P<0.05
Description: Assays were conducted as described in Zhang et al. (2008). Sprague-Dawley rats (12-18 days old; Taconic Farms) were deeply anesthetized with isoflurane and decapitated. Brains was removed rapidly, submerged in ice-cold artificial cerebrospinal fluid (ACSF, 2-4° C.), which contained (in mM): 124 NaCl, 4 KCl, 2 MgSO4, 2 CaC12, 1.25 NaH2PO4, 26 NaHCO3, 10 glucose; at pH 7.4, gassed continuously with 95% O2/5% CO2). Brains were hemisected, the frontal lobes cut off, and individual hemispheres glued using cyanoacrylate adhesive onto a stage immersed in ice-cold ACSF gassed continuously with 95% O2/5% CO2 during slicing. […] Bath application of test compounds (1 μM) was applied 30 min prior to application of Schaffer collateral stimulus trains to elicit LTP. LTP was induced by stimulation of Schaffer collateral axons with four high frequency theta burst stimulus trains of 10×100 Hz/5 pulse bursts each, applied at an inter-burst interval of 200 ms. Each train was 2 s in duration, and trains were applied 15 s apart.

floating behavior [12] = assay: Porsolt test procedure 2; type: in vivo, Sprague Dawley rats; conditions: 1 hr post-dosing
Description: The antidepressant-like effects of test compounds were examined with the rat Porsolt test as described in Page et al. (1999) and Burgdorf et al. (2009). Male Sprague Dawley rats (2-3 month old) were used in this study. Animals were dosed with test compounds (0.3 mg/kg IV) or sterile saline vehicle (1 ml/kg IV tail vein) 1 hr before a single test session. […] Water was changed after every other animal. […] CM-6A, CM-7A, CM-8A, and CM-9A were tested in the Porsolt test. CM-5A was not tested in the Porsolt test.
Animals received a single 15 min Porsolt habituation session on the day before the first 5 min Porsolt test. N=6 per group. *P<0.05 Fisher's PLSD post hoc test vs. vehicle.

C[C@@H](O)[C@H](N)C(=O)N1CCC[C@H]1C(=O)N1CCC[C@@]1(Cc1ccccc1)C(=O)N[C@H](C(N)=O)[C@@H](C)O [CM-4A, (R)-N-((2S,3R)-1-amino-3-hydroxy-1-oxobutan-2-yl)-1-((S)-1-((2S,3R)-2-amino-3-hydroxybutanoyl)pyrrolidine-2-carbonyl)-2-benzylpyrrolidine-2-carboxamide]
% Remaining at 60 minutes ([1]; 1 μM): 68% | Stability Class ([1]; 1 μM): Unstable (% Remaining <70%) | half-life at 1 μM ([1]; liver microsomes): > 1 h | % Remaining at 60 minutes ([2]; 1 μM): 72% | Stability Class ([2]; 1 μM): Moderate (% Remaining 70-90%) | half-life at 1 μM ([2]; liver microsomes): > 1 h | recovery at 5 μM (in vitro; pH 7.4): 100% | Papp (in vitro; pH 7.4, Papp (10^−6 cm/sec), HBSS pH 7.4): 0.15 ×10⁻⁶ cm/s | Papp (in vitro; pH 7.4, Permeability classification): < 3 ×10⁻⁶ cm/s | oral bioavailability (dose linearity) [3]: essentially linear | magnitude of LTD [4]: significantly reduced the magnitude of LTD | floating time in the rat Porsolt test (dose response) (floating behavior [5]; 0.1 to 10 mg/kg PO, FIG. 9): dose- and time-dependent antidepressant effect | latency to eat in the NIH test (latency to eat): produces an antidepressant/anxiolytic-like effect | positive emotional learning (ultrasonic vocalizations; FIG. 14A): increases positive emotional learning | aversive 20-kHz USVs (ultrasonic vocalizations; FIG. 14B): decreases aversive 20-kHz USVs | center compartment crosses and time (anxiolytic-like effect) (open field behavior): produces an anxiolytic-like effect | locomotor behavior (line crosses) (open field behavior): without effecting locomotor behavior | fall latencies (sedative/ataxia like effect) (fall latencies): does not produce a sedative/ataxia like effect | floating time in the rat Porsolt test (floating behavior [6]; positive control, 1 mg/kg PO, 1 hr and 24 hrs post dosing, FIG. 12): robust Antidepressant-like effects

C[C@@H](O)[C@H](N)C(=O)N1CCC[C@H]1C(=O)N1CCC[C@@]1(Cc1ccc(F)cc1)C(=O)N[C@H](C(N)=O)[C@@H](C)O [CM-6A, (R)-N-((2S,3R)-1-amino-3-hydroxy-1-oxobutan-2-yl)-1-((S)-1-((2S,3R)-2-amino-3-hydroxybutanoyl)pyrrolidine-2-carbonyl)-2-(4-fluorobenzyl) pyrrolidine-2-carboxamide]
Mean Solubility (N = 3) at pH [7]: >200 | % Remaining at 60 minutes ([1]; 1 μM): 100% | Half-life ([1]; 1 μM): >1 h | Stability Class ([1]; 1 μM): Stable (% Remaining >90%) | % Remaining at 60 minutes ([2]; 1 μM): 88% | Half-life ([2]; 1 μM): >1 h | Stability Class ([2]; 1 μM): Moderate (% Remaining 70-90%) | % Remaining at 60 minutes [8]: 87% | Half-life [8]: >1 h | Stability Class [8]: Moderate (% Remaining 70-90%) | % Remaining at 60 minutes [9]: 98% | Half-life [9]: >1 h | Stability Class [9]: Stable (% Remaining >90%) | Permeability classification [10]: Low (≦3 × 10^−6 cm/sec) | Recovery [10]: 100 | long-term potentiation after high frequency stimulation (fEPSP slope) [11]: increased long-term potentiation | floating time in the Porsolt test (floating behavior [12]; single dose 0.3 mg/kg IV, FIG. 11A): produced an antidepressant-like effect | floating time in the Porsolt test (floating behavior [12]; single dose (0.3 mg/kg IV), FIG. 11B): produced an antidepressant-like effect | floating time in the Porsolt test (floating behavior [6]; single dose (0.3 mg/kg IV), 24 hrs post-dosing, FIG. 11C): produced an antidepressant-like effect

C[C@@H](O)[C@H](N)C(=O)N1CCC[C@H]1C(=O)N1CCC[C@H]1C(=O)N[C@H](C(N)=O)[C@@H](C)O [GLYX-13, reference compound] (H-TPPT-NH2)
magnitude of LTD [4]: significantly reduced the magnitude of LTD

NS(=O)(=O)c1cccc2c1c([N+](=O)[O-])cc1[nH]c(=O)c(=O)[nH]c12 [NBQX, 2,3-dihydroxy-6-nitro-7-sulfamoyl-benzo[f]quinoxaline-2,3-dione, reference compound]
floating time in the rat Porsolt test, NBQX pretreatment (floating behavior [5]; NBQX 10 mg/kg IP 10 min before CM-4A 1 mg/kg PO, FIG. 10): blocks the antidepressant-like effect of CM-4A
